# Results taken from publication PMC3683333, “^11C-LY2428703, a positron emission tomographic radioligand for the metabotropic glutamate receptor 1, is unsuitable for imaging in monkey and human brains” (EJNMMI Research, 2013).
# Columns and labels:
# [1] = target: T1, mGluR1 (Homo sapiens, UniProt Q13255); assay: Brain PET at baseline, human; type: in vivo; design: from tissue; host or cells: brain of living healthy human volunteers (in vivo PET); conditions: for VT: mean ± SD
# Text: Three healthy females participated in the study (29 ± 2-year old, 69 ± 13 kg). All were free from current medical and psychiatric illnesses, as assessed by medical history, physical examination, electrocardiogram, urinalysis including drug screening, and blood tests (complete blood count, serum chemistries, thyroid function test, and antibody screening for syphilis, HIV, and hepatitis B). The National Institutes of Health Central Nervous System Institutional Review Board approved the protocols and the consent forms. Written informed consent was obtained from all subjects.
# PET images were acquired using the GE Advance scanner (GE Healthcare, Milwaukee, WI, USA) for 120 min. An 8-min ^68Ge transmission scan was obtained before the injection of the radiotracer for attenuation correction. The mean injected activity was 328 ± 12 MBq. The specific activity at the time of injection was 87.2 ± 34.7 GBq/μmol, which corresponded to 5.5 ± 2.3 nmol (0.082 ± 0.037 nmol/kg) of carrier. Blood samples (1 mL each) were drawn from the radial artery at 15-s intervals until 150 s, followed by 3-mL samples at 3, 4, 6, 8, 10, 15, 20, 30, 40, and 50 min, and 4.5 mL at 60, 75, 90, and 120 min. The unchanged parent fraction in plasma and fP of ^11C-LY2428703 were determined as described above.
# To identify brain regions, magnetic resonance (MR) images were obtained using a 3-T GE Signa device (GE Healthcare, Milwaukee, WI, USA). T1-weighted structural images were acquired with a voxel size of 0.86 mm × 0.86 mm × 1.2 mm. The image acquisition sequences were the time of repetition (7.3 ms), echo time length (2.8 ms), and flip angle (6°).
# The average PET image created from all frames was first coregistered to the individual MR image. Then, both MR and all PET images were spatially normalized to a standard anatomic orientation (Montreal Neurological Institute (MNI) space) based on transformation parameters from the MR images. A volume-of-interest template as implemented in PMOD (PMOD Technologies Ltd, Zurich, Switzerland) was used to obtain brain time-activity curves.
# (§1) Volumes of distribution (VT) were obtained by nonlinear compartmental analysis. Goodness-of-fit by nonlinear least squares analysis was evaluated using the Akaike Information Criterion (AIC) and Model Selection Criterion (MSC). The most appropriate model is that with the smallest AIC and the largest MSC score. Goodness-of-fit by the compartment models was compared with F statistics. A value of P < 0.05 was considered significant for F statistics. The identifiability of kinetic variables was calculated as standard error obtained from the diagonal of the covariance matrix and expressed as a percentage of the rate constant.
# [2] = target: T1, mGluR1; assay: Saturation binding assay with [^3H]LY456066, human cerebellar membranes; design: P2 membrane fractions were prepared from the cerebella of; from tissue; host or cells: human cerebellum, P2 membrane fraction; conditions: humans
# Protocol: P2 membrane fractions were prepared from the cerebella of male Sprague–Dawley rats (n = 3), male rhesus monkeys (n = 3), and female humans (n = 4). […] Nonspecific binding was defined by heterologous displacement of 1 μM LY480084 (mGlu1 antagonist) in select wells. Plates were incubated on ice for 75 min and membranes harvested on 0.3% polyethylenimine pretreated Wallac filter mats using a Tomtec Harvester MachII (Tomtec, Hamden, CT, USA). Dissociation constant (KD) and receptor density (Bmax) values were obtained in GraphPad Prism using standard nonlinear one-site binding equations. Data are presented as mean ± SEM (n = 3 to 4); one-way analysis of variance followed by Tukey's post hoc test.
# [3] = system: mGluR1; assay: Brain PET at baseline and after mGluR1 blockade, monkey; type: in vivo, rhesus monkeys (Macaca mulatta)
# Protocol: Four male rhesus monkeys (Macaca mulatta, 11.7 ± 2.9 kg) were imaged in 13 PET scans. Seven scans were performed at baseline, three scans were performed after receptor blocking to calculate nondisplaceable uptake (VND), and three scans were performed after blockade of the efflux transporters at the blood–brain barrier. Receptors were blocked by mixing ^11C-LY2428703 with an mGluR1 antagonist - either nonradioactive LY2428703 (2.0 mg/kg) or LY2332084 (0.5 mg/kg) - in the same syringe. Efflux transporters were blocked in two scans by injecting DCPQ, which selectively blocks the efflux transporter ABCB1 (P-gp), and in one scan by injecting elacridar, which blocks both ABCB1 (P-gp) and ABCG2 (BCRP).
# PET images were acquired using either the high-resolution research tomograph (HRRT) or the FOCUS 220 scanner (Siemens/CPS, Knoxville, TN, USA) for 120 min in 33 frames, with frame durations ranging from 30 s to 5 min, and correcting for attenuation and scatter. About 2 h before the PET scan, anesthesia was initiated with ketamine (10 mg/kg IM) and then maintained with 1% to 3% isoflurane. Electrocardiograph, body temperature, heart rate, and respiration rate were measured throughout the experiment. At baseline, the injected activity was 210 ± 51 MBq (specific activity at time of injection 43.2 ± 25.6 GBq/μmol, mass dose 6.9 ± 4.7 nmol or 0.62 ± 0.35 nmol/kg). Tissue time-activity curves were obtained from semi-automatic regions of interest encompassing the whole cerebellum and the rest of the brain. Brain uptake was expressed as standardized uptake value (SUV). Arterial input function was obtained for eight scans: four at baseline, two after blocking with nonradioactive LY2428703, one after blocking with DCPQ, and one after blocking with elacridar. Blood samples (0.5 mL each) were drawn through a port connected to the femoral artery at 15-s intervals until 2 min, followed by 1-mL samples at 3, 5, 10, 30, 60, 90, and 120 min. The plasma time-activity curve was corrected for the fraction of unchanged radioligand following the procedure detailed above.
# as §1
# T1 sequence (Q13255 19-1194): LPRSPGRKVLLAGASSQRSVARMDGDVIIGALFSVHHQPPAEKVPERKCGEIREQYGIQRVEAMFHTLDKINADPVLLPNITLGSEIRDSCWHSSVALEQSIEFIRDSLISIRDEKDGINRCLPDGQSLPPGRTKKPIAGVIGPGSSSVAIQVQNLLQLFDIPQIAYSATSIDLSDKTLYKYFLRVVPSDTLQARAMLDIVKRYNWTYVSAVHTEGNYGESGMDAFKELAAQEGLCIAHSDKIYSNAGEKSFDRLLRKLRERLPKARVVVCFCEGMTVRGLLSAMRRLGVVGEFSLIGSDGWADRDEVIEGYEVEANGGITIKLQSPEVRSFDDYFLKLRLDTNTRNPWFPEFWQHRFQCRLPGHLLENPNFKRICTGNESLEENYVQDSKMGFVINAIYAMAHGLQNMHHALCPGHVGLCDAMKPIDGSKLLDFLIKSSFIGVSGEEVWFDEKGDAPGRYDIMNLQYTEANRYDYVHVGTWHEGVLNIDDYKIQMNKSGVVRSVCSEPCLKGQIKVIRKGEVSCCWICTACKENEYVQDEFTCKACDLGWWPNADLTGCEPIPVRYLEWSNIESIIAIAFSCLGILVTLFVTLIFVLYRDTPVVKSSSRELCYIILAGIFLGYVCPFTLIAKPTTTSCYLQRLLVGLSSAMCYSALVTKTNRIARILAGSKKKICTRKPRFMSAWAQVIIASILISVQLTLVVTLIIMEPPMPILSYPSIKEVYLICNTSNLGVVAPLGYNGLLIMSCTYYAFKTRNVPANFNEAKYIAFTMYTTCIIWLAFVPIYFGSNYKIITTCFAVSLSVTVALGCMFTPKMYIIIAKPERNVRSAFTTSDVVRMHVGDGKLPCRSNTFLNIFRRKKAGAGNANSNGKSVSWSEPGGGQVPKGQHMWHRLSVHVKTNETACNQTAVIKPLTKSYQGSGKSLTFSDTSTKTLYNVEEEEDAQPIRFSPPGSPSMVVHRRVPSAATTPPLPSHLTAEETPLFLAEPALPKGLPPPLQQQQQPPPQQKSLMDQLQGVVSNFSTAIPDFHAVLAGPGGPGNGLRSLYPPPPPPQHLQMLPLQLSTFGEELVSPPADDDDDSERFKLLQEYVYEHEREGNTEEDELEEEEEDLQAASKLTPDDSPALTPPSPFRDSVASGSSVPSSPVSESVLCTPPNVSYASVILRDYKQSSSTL
smiles,measurement,setting,value
Cc1c(-c2ccc(O[11CH3])cc2)nsc1NC(=O)[C@@H]1C[C@H]1C [^11C-LY2428703],VT values,"[1]; 2TCM, all brain regions",< 0.1 mL/cm^3
same,time of brain peak uptake,[1]; after injection,1.3 ± 0 min
same,time at which brain activity decreased to 50% of the peak,[1]; average,20 min
same,VT,"[1]; caudate, two-tissue compartment model",0.086 ± 0.024 (22.6%) mL · cm^−3
same,VT,"[1]; cerebellum, two-tissue compartment model",0.090 ± 0.010 (2.8%) mL · cm^−3
same,VT,"[1]; frontal cortex, two-tissue compartment model",0.092 ± 0.016 (14.2%) mL · cm^−3
same,VT,"[1]; parietal cortex, two-tissue compartment model",0.087 ± 0.011 (4.9%) mL · cm^−3
same,VT,"[1]; temporal cortex, two-tissue compartment model",0.102 ± 0.010 (4.4%) mL · cm^−3
same,mean VT,[1]; two-tissue compartment model,0.093 ± 0.012 mL/cm^3
same,brain peak uptake,[1]; without vascular correction,1.14 ± 0.18 SUV
same,"fp × Bmax/KD (=VS), effective BP",[2],0.016
same,peak uptake in cerebellum,[3]; after mGluR1 blockade,4.9 ± 0.8 SUV
same,peak uptake in forebrain,[3]; after mGluR1 blockade,3.6 ± 1.9 SUV
same,peak uptake in cerebellum,[3]; baseline,3.1 ± 1.4 SUV
same,peak uptake in cerebellum higher than in forebrain,[3]; baseline,about 50%
same,peak uptake in forebrain,[3]; baseline,2.2 ± 0.8 SUV
same,time at which cerebellar uptake decreased to 50% of peak,[3]; baseline,about 20 min
same,time of peak uptake in cerebellum,[3]; baseline,approximately 2 min
same,time of peak uptake in forebrain,[3]; baseline,approximately 2 min
same,mean VT,"[3]; baseline scans, two-tissue compartment model",3.5 ± 1.0 mL/cm^3
same,VND,[3]; calculated from mGluR1 blocking studies,4.4 ± 2.9 mL/cm^3
